Measurements: US7488740B2, “Substituted quinolin-4-ylamine analogues” (Neurogen Corporation, priority 2003, dated 2009)

molecular target: T1, human capsaicin receptor (Homo sapiens, UniProt Q8NER1); experiment: Calcium mobilization assay (Example 6); assay type: cell-based; settings: concentration required to provide a 50% decrease in the fluorescence response of cells exposed to one IC50 of capsaicin
T1 construct: A cDNA encoding full length human capsaicin receptor recited in U.S. Pat. No. 6,482,611 was subcloned in the plasmid pBK-CMV; expressed in transfected cells
T1 sequence (Q8NER1 whole entry): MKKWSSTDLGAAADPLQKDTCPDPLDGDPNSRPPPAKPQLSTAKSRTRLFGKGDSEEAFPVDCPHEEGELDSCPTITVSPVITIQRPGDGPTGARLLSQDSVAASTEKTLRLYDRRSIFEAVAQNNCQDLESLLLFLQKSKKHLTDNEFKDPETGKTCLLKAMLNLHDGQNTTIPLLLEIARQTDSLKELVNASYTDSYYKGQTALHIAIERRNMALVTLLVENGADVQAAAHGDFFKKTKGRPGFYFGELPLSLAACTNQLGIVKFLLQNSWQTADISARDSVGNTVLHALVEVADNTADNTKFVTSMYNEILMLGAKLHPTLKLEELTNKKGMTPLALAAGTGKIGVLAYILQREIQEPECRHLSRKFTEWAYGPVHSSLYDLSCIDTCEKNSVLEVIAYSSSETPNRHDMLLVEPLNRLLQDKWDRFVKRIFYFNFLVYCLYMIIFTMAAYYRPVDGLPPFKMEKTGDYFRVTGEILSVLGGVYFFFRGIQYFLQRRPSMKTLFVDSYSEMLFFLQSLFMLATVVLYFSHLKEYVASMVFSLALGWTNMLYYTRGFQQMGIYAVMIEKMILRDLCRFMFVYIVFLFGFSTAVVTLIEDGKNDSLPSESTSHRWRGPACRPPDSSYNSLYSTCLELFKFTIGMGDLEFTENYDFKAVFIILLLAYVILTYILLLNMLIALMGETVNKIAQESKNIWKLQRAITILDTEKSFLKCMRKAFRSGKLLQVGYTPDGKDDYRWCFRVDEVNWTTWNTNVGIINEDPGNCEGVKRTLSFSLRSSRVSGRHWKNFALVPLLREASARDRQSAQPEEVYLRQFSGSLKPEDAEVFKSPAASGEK
Method: Human embryonic kidney (HEK293) cells were transfected with the pBK-CMV expression construct encoding the full length human capsaicin receptor using standard methods. The transfected cells were selected for two weeks in media containing G418 (400 μg/ml) to obtain a pool of stably transfected cells. Independent clones were isolated from this pool by limiting dilution to obtain clonal stable cell lines for use in subsequent experiments.
Cells transfected with expression plasmids (as described in Example 4) and thereby expressing human capsaicin receptor are seeded and grown to 70-90% confluency in FALCON black-walled, clear-bottomed 96-well plates (#3904, BECTON-DICKINSON, Franklin Lakes, N.J.). The culture medium is emptied from the 96 well plates and FLUO-3 AM calcium sensitive dye (Molecular Probes, Eugene, Oreg.) is added to each well (dye solution: 1 mg FLUO-3 AM, 440 μL DMSO and 440 μl 20% pluronic acid in DMSO, diluted 1:250 in Krebs-Ringer HEPES (KRH) buffer (25 mM HEPES, 5 mM KCl, 0.96 mM NaH2PO4, 1 mM MgSO4, 2 mM CaCl2, 5 mM glucose, 1 mM probenecid, pH 7.4), 50 μl diluted solution per well). Plates are covered with aluminum foil and incubated at 37° C. for 1-2 hours in an environment containing 5% CO2. After the incubation, the dye is emptied from the plates, and the cells are washed once with KRH buffer, and, resuspended in KRH buffer.
Agonist (e.g., olvanil, capsaicin, or RTX)-induced calcium mobilization is monitored using either FLUOROSKAN ASCENT (Labsystems, Franklin, Mass.) or FLIPR (fluorometric imaging plate reader system, Molecular Devices, Sunnyvale, Calif.) instruments. Varying concentrations of the antagonists ruthenium red or capsazepine (RBI; Natick, Mass.) are added to cells concurrently with agonist (e.g., 25-50 nM capsaicin). For agonist-induced calcium responses, data obtained between 30 and 60 seconds after agonist application are used to generate the IC50 values. KALEIDAGRAPH software (Synergy Software, Reading, Pa.) is used to fit the data to the equation: y=a*(1/(1+(b/x)^c)) to determine the IC50 for the response. In this equation, y is the maximum fluorescence signal, x is the concentration of the agonist or antagonist, a is the Emax, b corresponds to the IC50 value and c is the Hill coefficient.
To measure the ability of a test compound to antagonize (inhibit) the response of cells expressing capsaicin receptors to capsaicin or other vanilloid agonist, the IC50 of capsaicin is first determined. An additional 20 μl of KRH buffer and 1 μl DMSO is added to each well of cells, prepared as described above. 100 μl capsaicin in KRH buffer is automatically transferred by the FLIPR instrument to each well. An 8-point concentration response curve, with final capsaicin concentrations of 1 nM to 3 μM, is used to determine capsaicin IC50.
Test compounds are dissolved in DMSO, diluted in 20 μl KRH buffer so that the final concentration of test compounds in the assay well is between 1 μM and 5 μM, and added to cells prepared as described above. The 96 well plates containing prepared cells and test compounds are incubated in the dark, at room temperature for 0.5 to 6 hours. It is important that the incubation not continue beyond 6 hours. Just prior to determining the fluorescence response, 100 μl capsaicin in KRH buffer at twice the IC50 concentration determined from the concentration response curve is automatically added by the FLIPR instrument to each well of the 96 well plate for a final sample volume of 200 μl and a final capsaicin concentration equal to the IC50. The final concentration of test compounds in the assay wells is between 1 μM and 5 μM. […] Antagonists of the capsaicin receptor decrease this response by at least about 20%, preferably by at least about 50%, and most preferably by at least 80% as compared to matched control. The concentration of antagonist required to provide a 50% decrease is the IC50 for the antagonist, and is preferably below 1 micromolar, 100 nanomolar, 10 nanomolar or 1 nanomolar. […]

IC50, ≤ 1 µM:
COCc1cc(Nc2ccc(S(=O)(=O)C(F)(F)F)cc2)c2ccc(-c3ncccc3C(F)(F)F)nc2n1 [Compound 15, 2-(methoxymethyl)-7-[3-(trifluoromethyl)pyridin-2-yl]-N-{4-[(trifluoromethyl)sulfonyl]phenyl}-1,8-naphthyridin-4-amine]
COCc1cc(Nc2ccc3c(c2)NCCC3(C)C)c2ccc(-c3ncccc3C(F)(F)F)nc2n1 [Compound 16, N-(4,4-dimethyl-1,2,3,4-tetrahydroquinolin-7-yl)-2-(methoxymethyl)-7-[3-(trifluoromethyl)pyridin-2-yl]-1,8-naphthyridin-4-amine]
COCc1cc(Nc2ccc3c(c2)CN(C)CC3(C)C)c2ccc(-c3ncccc3C(F)(F)F)nc2n1 [Compound 17, 2-(methoxymethyl)-7-[3-(trifluoromethyl)pyridin-2-yl]-N-(2,4,4-trimethyl-1,2,3,4-tetrahydroisoquinolin-7-yl)-1,8-naphthyridin-4-amine]
CC(C)COc1cc(Nc2ccc(C(F)(F)F)cc2)c2ccc(-c3ncccc3C(F)(F)F)cc2n1 [Compound 18, 2-isobutoxy-N-[4-(trifluoromethyl)phenyl]-7-[3-(trifluoromethyl)pyridin-2-yl]quinolin-4-amine]
CC(C)COc1cc(Nc2ccc(C(C)(C)C)cc2)c2ccc(-c3ncccc3C(F)(F)F)cc2n1 [Compound 19, N-(4-tert-butylphenyl)-2-isobutoxy-7-[3-(trifluoromethyl)pyridin-2-yl]quinolin-4-amine]
FC(F)(F)c1ccc(Nc2cc(Cl)nc3cc(-c4ncccc4C(F)(F)F)ccc23)cc1 [Compound 20, 2-chloro-N-[4-(trifluoromethyl)phenyl]-7-[3-(trifluoromethyl)pyridin-2-yl]quinolin-4-amine]
CC(C)(C)c1ccc(Nc2cc(O)nc3cc(-c4ncccc4C(F)(F)F)ccc23)cc1 [Compound 21, 4-[(4-tert-butylphenyl)amino]-7-[3-(trifluoromethyl)pyridin-2-yl]quinolin-2-ol]
CC(C)(C)c1ccc(Nc2cc(Cl)nc3cc(-c4ncccc4C(F)(F)F)ccc23)cc1 [Compound 22, N-(4-tert-butylphenyl)-2-chloro-7-[3-(trifluoromethyl)pyridin-2-yl]quinolin-4-amine]
CC(C)(C)c1ccc(Nc2cc(N3CCOCC3)nc3cc(-c4ncccc4C(F)(F)F)ccc23)cc1 [Compound 23, N-(4-tert-butylphenyl)-2-morpholin-4-yl-7-[3-(trifluoromethyl)pyridin-2-yl]quinolin-4-amine]
C[C@@H]1CN(Cc2cc(Nc3ccc(C(F)(F)F)cc3)c3ccc(-c4ncccc4C(F)(F)F)nc3n2)C[C@H](C)O1 [Compound 24, 2-{[(2R,6S)-2,6-dimethylmorpholin-4-yl]methyl}-N-[4-(trifluoromethyl)phenyl]-7-[3-(trifluoromethyl)pyridin-2-yl]-1,8-naphthyridin-4-amine]
CN(C)CCOCc1cc(Nc2ccc(C(F)(F)F)cc2)c2ccc(-c3ncccc3C(F)(F)F)nc2n1 [Compound 25, 2-{[2-(dimethylamino)ethoxy]methyl}-N-[4-(trifluoromethyl)phenyl]-7-[3-(trifluoromethyl)pyridin-2-yl]-1,8-naphthyridin-4-amine]
CC(C)(C)c1ccc(Nc2cc(N3CCCCC3)nc3cc(-c4ncccc4C(F)(F)F)ccc23)cc1 [Compound 26, N-(4-tert-butylphenyl)-2-piperidin-1-yl-7-[3-(trifluoromethyl)pyridin-2-yl]quinolin-4-amine]
CCCCNc1cc(Nc2ccc(C(C)(C)C)cc2)c2ccc(-c3ncccc3C(F)(F)F)cc2n1 [Compound 27, N~2~-butyl-N~4~-(4-tert-butylphenyl)-7-[3-(trifluoromethyl)pyridin-2-yl]quinoline-2,4-diamine]
CC(C)(C)c1ccc(Nc2cc(N3CCCC3)nc3cc(-c4ncccc4C(F)(F)F)ccc23)cc1 [Compound 28, N-(4-tert-butylphenyl)-2-pyrrolidin-1-yl-7-[3-(trifluoromethyl)pyridin-2-yl]quinolin-4-amine]
CC(C)CCNc1cc(Nc2ccc(C(C)(C)C)cc2)c2ccc(-c3ncccc3C(F)(F)F)cc2n1 [Compound 29, N~4~-(4-tert-butylphenyl)-N~2~-isopentyl-7-[3-(trifluoromethyl)pyridin-2-yl]quinoline-2,4-diamine]
CCOc1cc(Nc2ccc(C(C)(C)C)cc2)c2ccc(-c3ncccc3C(F)(F)F)cc2n1 [Compound 30, N-(4-tert-butylphenyl)-2-ethoxy-7-[3-(trifluoromethyl)pyridin-2-yl]quinolin-4-amine]
Oc1cc(Nc2ccc(C(F)(F)F)cc2)c2ccc(-c3ncccc3C(F)(F)F)nc2n1 [Compound 31, 4-{[4-(trifluoromethyl)phenyl]amino}-7-[3-(trifluoromethyl)pyridin-2-yl]-1,8-naphthyridin-2-ol]
CC(C)CCOc1cc(Nc2ccc(C(C)(C)C)cc2)c2ccc(-c3ncccc3C(F)(F)F)cc2n1 [Compound 32, N-(4-tert-butylphenyl)-2-(isopentyloxy)-7-[3-(trifluoromethyl)pyridin-2-yl]quinolin-4-amine]
CCCOc1cc(Nc2ccc(C(C)(C)C)cc2)c2ccc(-c3ncccc3C(F)(F)F)cc2n1 [Compound 33, N-(4-tert-butylphenyl)-2-propoxy-7-[3-(trifluoromethyl)pyridin-2-yl]quinolin-4-amine]
FC(F)(F)c1ccc(Nc2cc(Cl)nc3nc(-c4ncccc4C(F)(F)F)ccc23)cc1 [Compound 34, 2-chloro-N-[4-(trifluoromethyl)phenyl]-7-[3-(trifluoromethyl)pyridin-2-yl]-1,8-naphthyridin-4-amine]
FC(F)(F)c1ccc(Nc2ccnc3nc(-c4ncccc4C(F)(F)F)ccc23)cc1 [Compound 35, N-[4-(trifluoromethyl)phenyl]-7-[3-(trifluoromethyl)pyridin-2-yl]-1,8--naphthyridin-4-amine]
CCOc1cc(Nc2ccc(C(F)(F)F)cc2)c2ccc(-c3ncccc3C(F)(F)F)nc2n1 [Compound 36, 2-ethoxy-N-[4-(trifluoromethyl)phenyl]-7-[3-(trifluoromethyl)pyridin-2-yl]-1,8-naphthyridin-4-amine]
CCOc1cc(Nc2ccc(C(C)(C)C)cc2)c2ccc(-c3ncccc3C(F)(F)F)nc2n1 [Compound 37, N-(4-tert-butylphenyl)-2-ethoxy-7-[3-(trifluoromethyl)pyridin-2-yl]-1,8-naphthyridin-4-amine]
CCOc1cc(Nc2ccc(C(C)C)cc2)c2ccc(-c3ncccc3C(F)(F)F)nc2n1 [Compound 38, 2-ethoxy-N-(4-isopropylphenyl)-7-[3-(trifluoromethyl)pyridin-2-yl]-1,8-naphthyridin-4-amine]
Cc1cc(Nc2ccc(C(F)(F)F)cn2)c2ccc(-c3ncccc3C(F)(F)F)nc2n1 [Compound 39, 2-methyl-7-[3-(trifluoromethyl)pyridin-2-yl]-N-[5-(trifluoromethyl)pyridin-2-yl]-1,8-naphthyridin-4-amine]
